# Measured values reported in PMC10058761, “Heart-Type Fatty Acid Binding Protein Binds Long-Chain Acylcarnitines and Protects against Lipotoxicity” (International Journal of Molecular Sciences, 2023).
# “And” between values parts separate entries of the source, which are not always exact repeats. Equal values may be shown once.
# How the values were obtained:
# [1] = target: T1, human FABP3 (Homo sapiens, UniProt P05413); experiment: ITC assay of ligand binding to apo-FABP3; settings: for Kd / ΔG / ΔH / −TΔS / N (stoichiometry) / binding to FABP3 (binding heat effects) by ITC: KPi pH 7.6, 25 °C; for N (stoichiometry): protein assumed 100% active and delipidated
# T1 construct: His-tag (N); TEV cleavage site (N); made in house; host or cells: E. coli BL21(DE3)
# Method: ITC experiments were carried out on the MicroCal™ iTC200 instrument (Malvern Instruments Ltd., Malvern, UK). Experiments were performed in KPi buffer without and with 0.1% (v/v) TX supplement. […] Experiments for the determination of the ΔCp were performed at three different temperatures: 16, 25, and 37 °C. […] Every titration started with a small 0.3 μL injection introduced to compensate for the diffusion effects. One of the following injection profiles was chosen based on the activity of the ligand and binding heat released: 1.2 μL × 32 or 1.5 μL × 26—all with 120 s time spacing between every injection and 600 rpm. Each ligand was titrated at least two times. The reference baseline consisting of small peaks of identical size (titration of the corresponding ligand into the buffer) was subtracted from the data before fitting to correct for the heat of the ligand dilution. The first injection was excluded from each dataset. The final data were fitted to a theoretical titration curve (one set of sites fitting model) using MicroCal Origin 7 SR4 software (OriginLab, Northampton, MA, USA).
# [2] = target: T1, human FABP3; experiment: Ligand binding by NMR (2D 1H-15N HSQC chemical shift perturbations); settings: KPi buffer pH 7.6
# Method: NMR spectra were acquired on the 600 MHz Bruker Avance Neo spectrometer (Bruker Biospin GmbH, Rheinstetten, Germany) equipped with a 5-mm quadruple-resonance CryoProbe (QCI) with z-gradients. […] All experiments were performed in KPi buffer without or with TX and with the addition of 7% (v/v) D2O, 0.03% (v/v) NaN3, and 0.01% (v/v) SigmaFAST EDTA-free protease inhibitor cocktail to prevent protein degradation. The amount of organic solvent (ethanol or DMSO-d6) was below 2% (v/v) in each experiment.
# 3D HNCA, 3D HNCO, 3D HN(CA)CO, and 3D CBCA(CO)NH spectra were acquired for the backbone assignment. 3D [^1H,^1H]-nuclear Overhauser spectroscopy (NOESY)-^15N-heteronuclear single-quantum correlation (HSQC) spectrum was acquired using a mixing time of 100 ms and also used in the backbone assignment. 2D ^1H-^15N HSQC spectra were acquired for evaluation of the CSPs caused by the lipid binding. Chemical shifts were referenced internally to the residual water signal at 4.70 ppm relative to the 4,4-dimethyl-4-silapentane-1-sulfonic acid (DSS). […] Other complexes were analyzed by analogy and with the help of 3D [^1H-^1H]-NOESY-^15N-HSQC. All spectra were processed in TopSpin v. 4.1.1. (Bruker, Billerica, MA, USA) and analyzed in CARA 1.9.1. software. Residue-specific protein backbone amide assignment was performed based on the published chemical shifts. CSPs, Δδ, were calculated using Equation (1) with the scaling factor, α, which was set to 0.1 [67, 68]. (1) Δδ=1/2[δH2+α·δN^2],
# [3] = target: T1, human FABP3; experiment: ITC competitive binding experiments (FABP3 pre-saturated with a competing ligand); settings: FABP3 saturated with C18:1(n-9)t-carnitine, titrated with the FA, 25 °C
# Method: ITC experiments were carried out on the MicroCal™ iTC200 instrument (Malvern Instruments Ltd., Malvern, UK). Experiments were performed in KPi buffer without and with 0.1% (v/v) TX supplement. All titrations except for the determination of the heat capacity, ΔCp, were performed at 25 °C using 20–120 μM protein. Experiments for the determination of the ΔCp were performed at three different temperatures: 16, 25, and 37 °C. 280 μL of the protein solution in the sample cell were titrated with the ligand solution diluted to 200–1200 μM depending on the enzyme concentration (to achieve a 1:10 or 1:5 ratio). Every titration started with a small 0.3 μL injection introduced to compensate for the diffusion effects. One of the following injection profiles was chosen based on the activity of the ligand and binding heat released: 1.2 μL × 32 or 1.5 μL × 26—all with 120 s time spacing between every injection and 600 rpm. Each ligand was titrated at least two times. The reference baseline consisting of small peaks of identical size (titration of the corresponding ligand into the buffer) was subtracted from the data before fitting to correct for the heat of the ligand dilution. The first injection was excluded from each dataset. […]
# [4] = target: T1, human FABP3; experiment: ITC determination of heat capacity change at 16, 25 and 37 °C; type: binding; settings: ΔH at 16, 25, 37 °C, linear regression
# From the text: Heat capacity changes, ΔCp, are important indicators of the structural changes during ligand-to-protein binding in various environmental conditions and may reflect changes in the static and dynamic properties of the protein [33, 34]. Moreover, it may represent interactions with extra supplements, such as salts and detergents, and larger processes, such as changes in protein folding, solvent-accessible surface area (SASA), or protonation states within the active site. […] Thermodynamic parameters for the remaining LCFAs were determined in the KPi + TX buffer, while LCACs were tested in the KPi buffer without any additive. Figure 7 represents an example of the overlays of the ITC experiments for C18:1(n-9)c and the corresponding LCAC performed at the following temperatures: 16, 25, and 37 °C.
# ITC experiments were carried out on the MicroCal™ iTC200 instrument (Malvern Instruments Ltd., Malvern, UK). Experiments were performed in KPi buffer without and with 0.1% (v/v) TX supplement. All titrations except for the determination of the heat capacity, ΔCp, were performed at 25 °C using 20–120 μM protein. Experiments for the determination of the ΔCp were performed at three different temperatures: 16, 25, and 37 °C. 280 μL of the protein solution in the sample cell were titrated with the ligand solution diluted to 200–1200 μM depending on the enzyme concentration (to achieve a 1:10 or 1:5 ratio). Every titration started with a small 0.3 μL injection introduced to compensate for the diffusion effects. One of the following injection profiles was chosen based on the activity of the ligand and binding heat released: 1.2 μL × 32 or 1.5 μL × 26—all with 120 s time spacing between every injection and 600 rpm. Each ligand was titrated at least two times. The reference baseline consisting of small peaks of identical size (titration of the corresponding ligand into the buffer) was subtracted from the data before fitting to correct for the heat of the ligand dilution. The first injection was excluded from each dataset. The final data were fitted to a theoretical titration curve (one set of sites fitting model) using MicroCal Origin 7 SR4 software (OriginLab, Northampton, MA, USA).
# [5] = KPi without TX, Competitive Binding model
# [6] = KPi without TX, One Set of Sites model
# [7] = KPi + 0.10% TX, Competitive Binding model
# [8] = KPi + 0.10% TX, One Set of Sites model
# T1 sequence (P05413 whole entry): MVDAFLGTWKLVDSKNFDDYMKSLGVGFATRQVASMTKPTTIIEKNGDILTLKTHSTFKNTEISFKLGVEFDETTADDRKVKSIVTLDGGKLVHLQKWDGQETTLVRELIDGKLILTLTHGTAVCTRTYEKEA
Compound,Kd ([1]; with 0.1% TX) [µM],ΔG ([1]; with 0.1% TX) [kcal/mol],ΔH ([1]; with 0.1% TX) [kcal/mol],−TΔS ([1]; with 0.1% TX) [kcal/mol],N (stoichiometry) ([1]; with 0.1% TX),Kd ([1]; without TX) [µM],ΔG ([1]; without TX) [kcal/mol],ΔH ([1]; without TX),−TΔS ([1]; without TX) [kcal/mol],N (stoichiometry) ([1]; without TX),binding to FABP3 by NMR (CSPs in 2D 1H-15N HSQC) [2],other results
"CCCCCCCC(=O)O [C8:0, caprylate]",1.109 ± 0.001,-8.13 ± 0.01,-12.6 ± 0.3,4.5 ± 0.3,1.0,1.86 ± 0.05,-7.82 ± 0.02,-8.01 ± 0.09 kcal/mol,0.19 ± 0.07,1.0,,
CCCCCCCC(=O)O[C@H](CC(=O)O)C[N+](C)(C)C.[Cl-] [C8:0-carnitine],,,,,,,,,,,did not bind,binding to FABP3 (binding heat effects) by ITC ([1]; without TX): no binding
"CCCCCCCCCC(=O)O [C10:0, caprate]",0.56 ± 0.02,-8.535 ± 0.007,,4.7 ± 0.3,1.0,0.252 ± 0.004,-9.01 ± 0.01,-11.09 kcal/mol and -11.09 ± 0.08 kcal/mol,2.08 ± 0.08,1.0,,"ΔG [3, 5]: -11.8 ± 0.1 kcal/mol; ΔH [3, 5]: -14.1 ± 0.2 kcal/mol; -TΔS [3, 6]: 1.0 ± 0.1 kcal/mol; Kd [3, 6]: 0.36 ± 0.07 µM; ΔG [3, 6]: -8.8 ± 0.1 kcal/mol; ΔH [3, 6]: -9.8 ± 0.2 kcal/mol"
"CCCCCCCCCCCC(=O)O [C12:0, laurate]",0.57 ± 0.06,-8.54 ± 0.06,-14.5 ± 0.4,6.0 ± 0.3,1.0,0.2 ± 0.02,-9.12 ± 0.06,-8.60 ± 0.08 kcal/mol,-0.53 ± 0.02,1.0,,"ΔCp ([4]; KPi without TX): −0.33 kcal∙mol^−1∙K^−1 and −0.33 ± 0.01 kcal∙mol^−1∙K^−1; -TΔS [3, 5]: -0.4 ± 1.1 kcal/mol; ΔG [3, 5]: -12.5 ± 0.9 kcal/mol; ΔH [3, 5]: -12.1 ± 0.2 kcal/mol; -TΔS [3, 6]: -1.0 ± 0.1 kcal/mol; Kd [3, 6]: 0.36 ± 0.03 µM; ΔG [3, 6]: -8.80 ± 0.04 kcal/mol; ΔH [3, 6]: -7.8 ± 0.2 kcal/mol"
CCCCCCCCCCCC(=O)O[C@H](CC(=O)O)C[N+](C)(C)C [C12:0-carnitine],,,,,,,,,,,did not bind,binding to FABP3 (binding heat effects) by ITC ([1]; without TX): no binding
"CCCCCCCCCCCCCC(=O)O [C14:0, myristate]",0.3 ± 0.1,-8.9 ± 0.2,-10.9 ± 0.4,1.9 ± 0.2,1.0,,,,,,,
"CCCCCCCCCCCCCC(=O)O[C@H](CC(=O)O)C[N+](C)(C)C.[Cl-] [C14:0-carnitine, miristoylcarnitine]",,,,,,11.3,-6.7,-1.1 kcal/mol,-5.7,0.5,strong CSPs indicative of binding,
"CCCCCCCCCCCCCCCC(=O)O [C16:0, palmitate]",,-9.34 ± 0.07,-8.7 ± 0.9,-0.6 ± 0.8,1.0,,,,,,,"-TΔS [3, 7]: 0.2 ± 0.1 kcal/mol; ΔG [3, 7]: -11.62 kcal/mol; ΔH [3, 7]: -11.77 kcal/mol; -TΔS [3, 8]: -1.14 ± 0.05 kcal/mol; ΔG [3, 8]: -8.63 ± 0.01 kcal/mol; ΔH [3, 8]: -7.49 ± 0.05 kcal/mol"
"CCCCCCCCCCCCCCCC(=O)SCCNC(=O)CCNC(=O)[C@H](O)C(C)(C)COP(=O)(O)OP(=O)(O)OC[C@H]1O[C@@H](n2cnc3c(N)ncnc32)[C@H](O)[C@@H]1OP(=O)(O)O [C16:0-CoA, palmitoyl-CoA]",,,,,,8.9 ± 1.2,-6.90 ± 0.08,-5.04 ± 0.09 kcal/mol,-1.86 ± 0.01,1.0,strong CSPs indicative of binding,effect of detergent addition on binding to FABP3 (ITC) ([1]; KPi with TX detergent): completely blocked the binding
"CCCCCCCCCCCCCCCCCC(=O)O [C18:0, stearate]",0.7 ± 0.1,-8.34 ± 0.04,-6.4 ± 0.4,-2.0 ± 0.4,1.0,,,,,,,
"CCCCCCCC/C=C\CCCCCCCC(=O)O [C18:1(n-9)c, oleate]",0.29 ± 0.03,-8.93 ± 0.06,-10.0 ± 0.4,1.1 ± 0.5,1.0,,,,,,,ΔCp ([4]; KPi with 0.1% TX): −0.29 ± 0.06 kcal∙mol^−1∙K^−1
"CCCCCCCC/C=C/CCCCCCCC(=O)O [C18:1(n-9)t, elaidate]",0.21 ± 0.02,-9.12 ± 0.06,-8.0 ± 0.9,-1.1 ± 0.9,1.0,,,,,,,ΔCp ([4]; KPi with 0.1% TX): −0.15 ± 0.02 kcal∙mol^−1∙K^−1
"CC/C=C\C/C=C\C/C=C\C/C=C\C/C=C\CCCC(=O)O [C20:5(n-3)c, EPA]",1.6 ± 0.2,-7.90 ± 0.07,-17.4 ± 0.7,9.5 ± 0.8,1.0,,,,,,,ΔCp ([4]; KPi with 0.1% TX): −0.37 ± 0.03 kcal∙mol^−1∙K^−1
"C[N+](C)(C)C[C@H](O)CC(=O)[O-] [carnitine, L-carnitine]",,,,,,,,,,,neither bind nor interact,
Triton™ X-100 [TX],,,,,,,,,,,did not interact with the FABP3 core structure,
